Test results: paper PMC4839297, “HTS-Driven Discovery of New Chemotypes with West Nile Virus Inhibitory Activity” (Molecules, 2010)
Read-outs that look alike come from different tables or passages of the source.

Key:
[1] = system: WNV (NY-99 strain) infection of Vero E6 cells; test: Time of addition assay in dose response format; type: cell-based, West Nile virus; conditions: for EC50 change pattern (time of addition): Table 2; for EC50 change pattern over the course of infection: Table 3, compound added at -1, 4, 8, 18 h post-infection; for EC50: West Nile virus, Vero C1008, 18 h, read-out: EC50 in time of addition assay
Experimental: The compounds selected by the primary and dose response screening were re-supplied from the suppliers as a solid form except 4 compounds; SMR000394098, SMR000059052, SMR000027739 and SRI-4578, which were not available at that time (Table 1). Time of addition assays were conducted in a dose response format with the 20 compounds. Serially diluted compounds were added to Vero E6 cells at -1, 4, 8 and 18 h post-infection. Luminescent data was calculated (as above) to obtain EC50 values for each compound at each time point of addition.
The EC50 of MPA was within a range of 2.0~5.0 μM regardless of when it was added.
(§1) Cytotoxicity and antiviral efficacy were performed in a dose-response format in parallel. Compounds were serially diluted in complete media (MEM-E) with a 0.5% DMSO final concentration and adding 5 μL to cell plates, identical to the stacked plate method. A ten point, two-fold dilution series of compound concentrations ranging from 30 μM to 0.059 μM were used in the assay. Virus (0.04 MOI) or media was added for antiviral effect or cytotoxicity respectively. The plates were incubated 96 h in a 5% CO2 incubator at 37 °C. Cell viability was measured as stated above. The serially diluted compounds were also used for time of addition studies adding to the infected cells in 384-well plates at -1, 4, 8 and18 h post-infection with WNV (0.02 MOI). The plates were then developed as above 96 h after infection. The EC50 value was calculated for each time of addition point.

[2] = Cytotoxicity in dose-response format (CellTiter-Glo); type: cell-based; conditions: African green monkey, Vero E6 cells (uninfected)
Experimental: (§2) To confirm the activity and to test the cytotoxicity, the top 110 inhibitory compounds were evaluated in a dose response assay using the identical screen.
as §1, with “A ten point, two-fold dilution series of compound concentrations ranging from 30 μM to 0.059 μM were used in the assay.” left out
(§3) The Z′ value was employed to evaluate the assay’s robustness and was calculated from 1-(3×standard deviation of cell control (σc) + 3* standard deviation of the virus control (σv)/ [mean cell control signal (μc) minus mean virus control signal (μv)]). The signal/background (S/B) was calculated from the mean cell control signal (μc) divided by the mean virus control signal (μv). The signal/noise (S/N) was calculated from mean cell control signal (μc) minus mean virus control signal (μv) divided by the (standard deviation of the cell control signal (σc)^2 […] the standard deviation of the virus control signal (σv)^2)^1/2 [24]. The effective concentration at which the drug inhibited cell death at 50% in the presence of virus (EC50) and the cytotoxicity of the drug alone at 50% (CC50) were calculated using ActivityBase software (IDBS, Inc, Guildford, UK). CPE inhibition (%) and cell viability were calculated as described in elsewhere. The standard curve analysis function in SigmaPlot™ was used to calculate the inhibitory concentration (IC50 and IC50 values) for the protease and titer reduction assays.

[3] = system: WNV (NY-99 strain) infection of Vero E6 cells; test: Single dose primary HTS, CPE based (CellTiter-Glo), 384-well; type: cell-based, West Nile virus
[4] = system: WNV progeny virus in Vero E6 cells; test: Titer reduction assay (TCID50 of progeny virus); type: cell-based, West Nile virus; set-up: SI50 *: unit not given beside the values; conditions: for SI50 *: Table 3, footnote to * not given; for EC50 / EC90 / inhibition at 15 µM: West Nile virus; for EC50 / EC90: Vero C1008, 48 h; for EC50: read-out: Dose response in Titer reduction EC50; for EC90: read-out: Dose response in Titer reduction EC90; for inhibition at 15 µM: Vero C1008, read-out: inhibition of progeny virus titer
Experimental: Finally, we employed a titer reduction assay to confirm the antiviral activity of the seven compounds confirmed in the assays. The titer of the progeny virus produced in the presence of the compounds was measured in TCID50 format. […] The titer reduction assay confirmed the antiviral activity of the hit compounds selected through our pathway (Figure 6).
Vero E6 cells were seeded in a 12-well plate in a volume of 1 mL and incubated overnight at 37 °C and 5% CO2. The next day media was aspirated from the cells and they were infected by adsorption of WNV (0.1 MOI) for one hour in 100 μL media. After aspirating the virus and washing the cells with phosphate buffered saline, media was replenished containing compounds at various concentrations. The plates were incubated for 48 h. Progeny virus titer was measured by TCID50 assay in 384-well plate format with 6 wells per dilution of virus. CellTiter-Glo® reagent was employed to determine a cell death which is a sign of infection. A well with a luminescence signal less than the mean of the non-infected control signal, minus 5 times the standard deviation of the control, was regarded as a positive infection. The TCID50 was calculated with the numbers of positive infection and negative infection by the Reed-Muench method.

WNV NS2b-NS3pro = biological target: T1, WNV NS2b-NS3pro (West Nile virus, UniProt Q9Q6P4); test: WNV NS2b-NS3pro FRET based enzymatic assay; type: biochemical
T1 construct: A recombinant NS3 protease expressed and purified from E.coli; purchased AnaSpec Inc (CA, USA); host or cells: E. coli
T1 sequence (Q9Q6P4 1506-1683 limits assumed, looked up): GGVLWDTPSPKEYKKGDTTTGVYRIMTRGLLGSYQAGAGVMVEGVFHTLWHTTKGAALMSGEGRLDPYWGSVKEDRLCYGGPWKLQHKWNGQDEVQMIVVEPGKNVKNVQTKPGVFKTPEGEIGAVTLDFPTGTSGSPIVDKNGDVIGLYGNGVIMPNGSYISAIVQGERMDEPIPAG
T1 sequence (Q9Q6P4 1423-1470 partner limits assumed, looked up): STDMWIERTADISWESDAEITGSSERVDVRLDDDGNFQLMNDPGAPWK
Text: The results from the time of addition assay led us to examine the NS3 protease as a potential target of the hit compounds. NS3 protease is an important enzyme responsible for the maturation of viral proteins at early stage during the replication of virus in the host cells. We tested the compounds for an inhibitory activity on NS3 protease using a FRET based, in vitro, enzymatic assay.
A recombinant NS3 protease expressed and purified from E.coli with the cofactor NS2b (residues 49-96) and a fluorescence resonance energy transfer (FRET) based assay kit were purchased from AnaSpec Inc (CA, USA). We followed an assay protocol published on line at PubChem by University of Pittsburgh Molecular Library Screening Center (http://www.ncbi.nlm.nih.gov/, AID:577). The assay was performed in a 384-well format with 10 ng/well of NS2b-NS3pro enzyme.

[5] = system: WNV (NY-99 strain) infection of Vero E6 cells; test: Dose response assay in CPE based screen (antiviral efficacy); type: cell-based, West Nile virus
Experimental: as §2
After reviewing the data from the primary screen, 110 compounds were selected for a dose-response study. The same compound stocks (10 mM in 100% DMSO) were used to select 7 μL of the compounds into a low-volume, 384-well plate. The dose response plates were prepared using a “stacked-plate” format using a 1:2 dilution series for a total of ten concentrations. By using this format, each entire plate represents one of the ten concentrations in the dilution series. A 5 μL aliquot of each of the serial dilution plates was transferred to the assay plates along with an equal volume but separate transfer of controls. With the addition of 20 μL of cells and 5 μL of virus, the final test concentrations for the dose response screen were 30 μM, 15 μM, 7.5 μM, 3.75 μM, 1.875 μM, 0.9375 μM, 0.4688 μM, 0.2344 μM, 0.1172 μM, and 0.0586 μM all at […].
as §1, §3

[6] = Table 3, Vero E6, read-out: Dose response in CPE based CC50
[7] = Table 1, CPE based dose response, Vero E6, WNV 0.04 MOI, 96 h, read-out: EC50
[8] = West Nile virus, Vero C1008, 96 h, Table 1, CPE based dose response, Vero E6, WNV 0.04 MOI, 96 h
[9] = West Nile virus, Vero C1008, read-out: Dose response in CPE based EC50, Table 3, Vero E6, WNV
[10] = Table 1, Vero E6 without virus, 96 h, read-out: CC50

SMILES	EC50 change pattern (time of addition) [1]	EC50 change pattern over the course of infection [1]	EC50 [1]	CC50 at 96 h [2, 6]	inhibition at 5 µg/mL ([3]; West Nile virus, Vero C1008, read-out: inhibition on average in primary screen)	protection ([3]; assay optimization, MOI 0.04, 384-well)	SI50 * [4]	EC50 [4]	EC90 [4]	anti-NS2b-NS3pro activity (in words) (WNV NS2b-NS3pro)	SI50 (Selectivity Index 50, ratio of CC50 to EC50) ([5]; Table 1)	EC50 [5, 7]	EC50 [5, 8]	EC50 [5, 9]	CC50 at 96 h [2, 10]	Dose response in Titer reduction EC50 ([4]; Vero E6, WNV 0.1 MOI, 48 h post-infection)	inhibition at 15 µM [4]
COc1c(C)c2c(c(O)c1C/C=C(\C)CCC(=O)O)C(=O)OC2 [MPA, mycophenolic acid, reference compound]	No Change : EC50_1hr ≈ EC50_4hr ≈ EC50_8hr ≈ EC50_18hr	no change	2 to 5 µM	> 30 µM	44.6%	30%	>1000	0.03 µM	0.94 µM	–	–	–	–	–	–	–	–
O=C(O)c1ccccc1Nc1ccccc1 [N-Phenylanthranilic acid, reference compound]	–	–	–	–	–	–	–	–	–	could not detect any significant activity	–	–	–	–	–	–	–
Cc1oc(-c2ccccc2Cl)nc1CSCC(=O)N1CCCC1 [SMR000027739]	–	–	–	–	–	–	–	–	–	–	>3.4	29.6 µM	–	–	–	–	–
CC(=O)OC[C@H]1O[C@@H](n2ncc(=O)[nH]c2=O)[C@H](OC(C)=O)[C@@H]1OC(C)=O [SMR000059052]	–	–	–	–	–	–	–	–	–	–	>5.0	20 µM	–	–	–	–	–
O=C(O)c1ccccc1Nc1ccc([N+](=O)[O-])cc1 [SMR000171908]	Increase: EC50_1hr ≈ EC50_4hr ≤ EC50_8hr < EC50_18hr	Increase	–	> 30 µM	–	–	>25	1.16 µM	6.73 µM	–	>3.3	–	30.4 µM	30.4 µM	> 100 µM	–	–
C[C@@H]1Cc2ccccc2N1S(=O)(=O)c1cccc(C(=O)N2CCN(c3ncccn3)CC2)c1 [SMR000370276]	Increase: EC50_1hr ≈ EC50_4hr ≤ EC50_8hr < EC50_18hr	Increase	–	> 30 µM	–	–	>5	–	6.07 µM	–	>5.3	–	18.9 µM	18.9 µM	> 100 µM	No solution	98.8%
CC(C)C[C@H](NC(=O)c1nc[nH]c1C(=O)N1CCN(C(=O)OC(C)(C)C)CC1)C(=O)OC(C)(C)C [SMR000394098]	–	–	–	–	–	–	–	–	–	–	>5.1	19.6 µM	–	–	–	–	–
COc1cc(-c2ccc(Nc3ccccc3C(=O)O)c(OC)c2)ccc1Nc1ccccc1C(=O)O [SRI-19093, Redoxal]	–	Increase	3.2 to 6.4 µM	> 30 µM	–	–	>200	0.13 µM	2.14 µM	inhibited viral protease in vitro	>2.4	–	41 µM	41 µM	> 100 µM	–	93.7%
COc1cccc2c(=O)n3c(nc12)/C(=C/c1ccc2c(c1)OCO2)CC3 [SRI-22003]	Increase: EC50_1hr ≈ EC50_4hr ≤ EC50_8hr < EC50_18hr	Increase	–	> 30 µM	–	–	>6	4.7 µM	5.13 µM	–	>8.2	–	12.2 µM	12.2 µM	> 100 µM	–	98.8%
